Source: patent US6949350B1, “Chemosensitivity determination using phosphatidylserine” (Evotec Analytical Systems GmbH, priority 1999, dated 2005)
Starred links: 1 amine or outer side, 2 acyl side, 3 side chain; linkers in the order of their positions; H or OH if unused. Positions of bridges follow the written chain, without caps; N, C: chain ends. Non-standard residues stand in square brackets, D forms with d. Residues, ends and D or L forms follow the SMILES beside them. Chains are numbered I, II in the order given. Actinocin(9to1) = Cc1c2oc3c(C)ccc(C(=O)[*:1])c3nc-2c(C(=O)[*:2])c(N)c1=O; NMeV = CN[C@H](C(=O)O)C(C)C; Sar = CNCC(=O)O

Key:
Jurkat P40 cells = experiment: time-resolved apoptosis detection with fluorescence-labeled annexin V by fluorescence microscopy; assay type: cell-based; conditions: 1 μg/ml
Method: 100,000 Jurkat P40 cells were simultaneously mixed with 1 μg/ml actinomycin D in the presence of 2 mM CaCl2 and fluorescence-labeled annexin V and incubated at 37° C. in 5% CO2 over a period of up to 24 h. After 4, 6, 8, 10 and 24 h, an aliquot was withdrawn, applied to a glass slide, fixed and analyzed by fluorescence microscopy. […] When the time elapsed was extended and the cell destruction more advanced, there would be a time when fluorescent cell debris would no longer be visible. It was shown that apoptosis in a solution can be followed in a time-resolved manner by recording images at different times. The reaction mix was prepared at the beginning, and subsequently, the increasing apoptosis was only analyzed by means of imaging methods.

[1] = marker which binds phosphatidylserine; binding depends on calcium cations; cited from earlier work

Molecule | degree of apoptosis (number of annexin V stained cells in the observation field) (Jurkat P40 cells; 100,000 Jurkat P40 cells, 2 mM CaCl2, 37° C., 5% CO2, aliquots after 4, 6, 8, 10 and 24 h) | secondary necrosis (cell fragments) (Jurkat P40 cells; Jurkat P40 cells, after 24 h) | Kd [1] [nM]
Cc1c2oc3c(C)ccc(C(=O)N[C@@H]4C(=O)N[C@H](C(C)C)C(=O)N5CCC[C@H]5C(=O)N(C)CC(=O)N(C)[C@@H](C(C)C)C(=O)O[C@@H]4C)c3nc-2c(C(=O)N[C@@H]2C(=O)N[C@H](C(C)C)C(=O)N3CCC[C@H]3C(=O)N(C)CC(=O)N(C)[C@@H](C(C)C)C(=O)O[C@@H]2C)c(N)c1=O [actinomycin D] (I: T[dV]P[Sar][NMeV] / II: T[dV]P[Sar][NMeV]; ester I:1-I:C, II:1-II:C; linker I:N-II:N via Actinocin(9to1)) | the degree of apoptosis increases | smaller cell fragments become visible which indicate secondary necrosis | –
annexin V: marker which binds phosphatidylserine | – | – | 0.5
